Values after ≈ are worked out from the molar mass of the structure shown. Counter-ions that a name gives are not always drawn. Like-named read-outs stand apart in the source and are kept apart here.
Legend:
B. fragilis API 7716 = test: Antibacterial activity (MIC); format: cell-based; conditions: Bacteroides fragilis, API7716
[1] = system: E. faecalis VRE VanB CIP106998; test: Antibacterial activity (MIC); format: cell-based; conditions: Enterococcus faecalis; E. faecalis VRE VanB CIP106998; read-out: MIC
S. pyogenes CIP 56.41T = test: Antibacterial activity (MIC/MBC); format: cell-based, Streptococcus pyogenes; conditions: Streptococcus pyogenes, CIP56; S. pyogenes CIP 56.41T; read-out: MIC
[2] = system: E. faecium VRE VanA CIP107387; test: Antibacterial activity (MIC); format: cell-based; conditions: Enterococcus faecium; E. faecium VRE VanA CIP107387; read-out: MIC
[3] = system: Human lung fibroblast cells (ATCC CCL-171); test: Cytotoxicity (MTT) assay; conditions: human, 18 hr
Protocol: Cellular toxicity was measured by a colorimetric assay that makes use of the tetrazolium salt, MTT. Human lung fibroblast cells (ATCC CCL-171) were plated in 96-well plates at 10^4 cells per well and incubated under 5% CO2 at 37° C. for 24 hr to allow adherence of cells to the plate. Test compounds were prepared as a stock solution at 1 mg/mL in 1% DMSO/water and diluted with water for the serial dilutions (500-7.8 μg/mL). Cells underwent a 18 hr treatment under 5% CO2 at 37° C. with experimental drugs. Corresponding controls received either no drug treatment or treatment with SDS (sodium dodecyl sulfate). The optical density of each sample was read on a microplate spectrophotometer reader at 600 nm and cell survival was expressed as a fraction of that of untreated controls. A drug is said cytotoxic when this fraction is ≦−30%

[4] = system: E. faecalis VRE VanA CIP106996; test: Antibacterial activity (MIC); format: cell-based; conditions: Enterococcus faecalis; E. faecalis VRE VanA CIP106996; read-out: MIC
[5] = system: S. epidermidis MSCNS (D10); test: Antibacterial activity (MIC); format: cell-based; conditions: Staphylococcus epidermidis; S. epidermidis MSCNS (D10); read-out: MIC
[6] = system: S. epidermidis MRCNS (E93); test: Antibacterial activity (MIC); format: cell-based; conditions: Staphylococcus epidermidis; S. epidermidis MRCNS (E93); read-out: MIC
[7] = system: S. aureus MRSA clinical isolate; test: Antibacterial activity (MIC); format: cell-based, Staphylococcus aureus; conditions: Staphylococcus aureus; S. aureus MRSA clinical isolate; read-out: MIC
S. aureus MsrA PUL 5054 = test: Antibacterial activity (MIC); format: cell-based; conditions: Staphylococcus aureus
C. difficile CIP 104282 = test: Antibacterial activity (MIC); format: cell-based, Clostridium difficile; conditions: Clostridioides difficile, CIP104282; C. difficile CIP 104282; read-out: MIC
[8] = system: Staphylococcus aureus MSSA 53.154; test: Murine experimental septicaemia, in vivo efficacy; design: species or system mice; conditions: sc, mice, subcutaneously at 1 and 6 h post infection, survival on day 9, hybrid molecules formulated in water as their bis(hydrochloride) salt, read-out: ED50
Protocol: Experimental septicaemia was induced in mice as follows. Briefly, male Swiss OF1 mice (IFFA CREDO-Charles River) weighing 18 to 20 grams were infected intraperitoneally with 0.5 mL of a bacterial suspension containing 8.5×10^7 cfu of Staphylococcus aureus MSSA 53.154 (Institut Pasteur). The hybrid molecules were administered subcutaneously at 1 and 6 h post infection. Control and treatment groups at each dose were composed of seven mice. All the infected but untreated control mice died within 9 days. The 50% effective dose (ED50) values were calculated by a computerized program (GraphPad) from the survival rates on day 9 after infection.

[9] = system: S. pneumoniae PSSP CQI 201; test: Antibacterial activity (MIC); format: cell-based, Streptococcus pneumoniae; conditions: for MIC: Streptococcus pneumoniae, S. pneumoniae PSSP CQI 201, read-out: MIC
[10] = system: Staphylococcus aureus MSSA CIP 4.83; test: Antibacterial activity (MIC/MBC); format: cell-based; conditions: Staphylococcus aureus
[11] = system: S. pneumoniae PRSP (CQR 162); test: Antibacterial activity (MIC); format: cell-based; conditions: Streptococcus pneumoniae; S. pneumoniae PRSP (CQR 162); read-out: MIC
[12] = system: S. aureus VISA CIP 106757; test: Antibacterial activity (MIC); format: cell-based; conditions: Staphylococcus aureus; S. aureus VISA CIP 106757; read-out: MIC
[13] = system: S. pneumoniae PRSP clinical isolate; test: Antibacterial activity (MIC/MBC); format: cell-based, Streptococcus pneumoniae; conditions: Streptococcus pneumoniae, PRSP, read-out: MIC
S. pneumoniae mefE = test: Antibacterial activity (MIC); format: cell-based; conditions: Streptococcus pneumoniae; S. pneumoniae mefE (macrolide-resistant by efflux)
[14] = system: B. thuringiensis CIP 104676; test: Antibacterial activity (MIC); format: cell-based; conditions: Bacillus thuringiensis, CIP104676
P. aeruginosa CIP 103467 = test: Antibacterial activity (MIC); format: cell-based; conditions: Pseudomonas aeruginosa, CIP103467
B. subtilis CIP 5262 = test: Antibacterial activity (MIC); format: cell-based; conditions: Bacillus subtilis, CIP5262
S. aureus NorA 1199B = test: Antibacterial activity (MIC); format: cell-based, Staphylococcus aureus
E. coli CIP 54127 = test: Antibacterial activity (MIC); format: cell-based; conditions: Escherichia coli, CIP54127
S. pneumoniae PRSP = test: Antibacterial activity (MIC), Table VII; format: cell-based; conditions: Streptococcus pneumoniae, PRSP
H. influenzae CIP 102514 = test: Antibacterial activity (MIC/MBC); format: cell-based, Haemophilus influenzae; conditions: Haemophilus influenzae, CIP102514
[15] = system: E. faecalis VRE CIP 104676; test: Antibacterial activity (MIC/MBC); format: cell-based, Enterococcus faecalis; conditions: Enterococcus faecalis
[16] = S. aureus MSSA CIP 4.83, read-out: MIC

Row | SMILES | MIC [1] [µg/mL] | MIC (S. pyogenes CIP 56.41T) [µg/mL] | MIC [2] [µg/mL] | % of survival cells compared to the untreated controls ([3]; 7.8 μg/mL) [%] | % of survival cells compared to the untreated controls ([3]; 15.6 μg/mL) [%] | % of survival cells compared to the untreated controls ([3]; 31.2 μg/mL) [%] | % of survival cells compared to the untreated controls ([3]; 62.5 μg/mL) [%] | % of survival cells compared to the untreated controls ([3]; 125 μg/mL) [%] | % of survival cells compared to the untreated controls ([3]; 250 μg/mL) [%] | % of survival cells compared to the untreated controls ([3]; 500 μg/mL) [%] | MIC [4] [µg/mL] | MIC [5] [µg/mL] | MIC [6] [µg/mL] | MIC [7] [µg/mL] | MIC (S. aureus MsrA PUL 5054) [µg/mL] | MIC (C. difficile CIP 104282) [µg/mL] | ED50 [8] [mg/kg] | MIC [9] [µg/mL] | MIC [10, 16] [µg/mL] | MIC [11] [µg/mL] | also measured
1 | Cc1ncc([N+](=O)[O-])n1CCNc1ccnc2cc(C(F)(F)F)ccc12 [PA 1130, [2-(2-Methyl-5-nitroimidazol-1-yl)-ethyl]-(7-trifluoromethylquinolinyl-4-yl)-amine] | – | – | – | – | – | – | – | – | – | – | – | – | – | – | – | – | – | – | – | – | MIC (B. fragilis API 7716): 3.12 µg/mL (≈ 8.54 µM)
2 | CN[C@H](CC(C)C)C(=O)N[C@H]1C(=O)N[C@@H](CC(N)=O)C(=O)N[C@H]2C(=O)N[C@H]3C(=O)N[C@H](C(=O)N[C@H](C(=O)O)c4cc(O)cc(O)c4-c4cc3ccc4O)[C@H](O)c3ccc(c(Cl)c3)Oc3cc2cc(c3OC2OC(CO)C(O)C(O)C2OC2CC(C)(NCc3ccc(OCCNc4ccnc5cc(Cl)ccc45)cc3)C(O)C(C)O2)Oc2ccc(cc2Cl)[C@H]1O (stereo partly drawn) [PA 1157, N-4-{4-[2-(7-Chloroquinolin-4-ylamino)ethoxy]-benzyl}-vancomycin] | 6.25 (≈ 3.55 µM) | 0.125 (≈ 0.071 µM) | 6.25 (≈ 3.55 µM) | −22.0 | −22.5 | −24.2 | −24.9 | −26.9 | −26.2 | −29.2 | 3.12 (≈ 1.78 µM) | 0.05 (≈ 0.0284 µM) | 0.003 (≈ 0.0017 µM) | 0.2 (≈ 0.114 µM) | < 0.045 | 0.078 (≈ 0.0443 µM) | 0.09 | 0.003 (≈ 0.0017 µM) | 0.012 (≈ 0.00682 µM) | 0.003 (≈ 0.0017 µM) | MIC [12]: 0.1 µg/mL (≈ 0.0568 µM)
3 | CN[C@H](CC(C)C)C(=O)N[C@H]1C(=O)N[C@@H](CC(N)=O)C(=O)N[C@H]2C(=O)N[C@H]3C(=O)N[C@H](C(=O)N[C@H](C(=O)O)c4cc(O)cc(O)c4-c4cc3ccc4O)[C@H](O)c3ccc(c(Cl)c3)Oc3cc2cc(c3OC2OC(CO)C(O)C(O)C2OC2CC(C)(NCCCCNc3ccnc4cc(Cl)ccc34)C(O)C(C)O2)Oc2ccc(cc2Cl)[C@H]1O (stereo partly drawn) [PA 1158, N-4-[4(7-Chloroquinolin-4-ylamino)-butyl]-vancomycin] | 6.25 (≈ 3.72 µM) | 0.062 (≈ 0.0369 µM) | 25 (≈ 14.9 µM) | −11.8 | −13.2 | −10.7 | −16.9 | −16.9 | −19.8 | −18.4 | 6.25 (≈ 3.72 µM) | 0.1 (≈ 0.0595 µM) | 0.05 (≈ 0.0297 µM) | 0.2 (≈ 0.119 µM) | < 0.045 | 0.078 (≈ 0.0464 µM) | 0.26 | 0.012 (≈ 0.00713 µM) | 0.1 (≈ 0.0595 µM) | 0.025 (≈ 0.0149 µM) | MIC [12]: 0.39 µg/mL (≈ 0.232 µM)
4 | CC[C@@H]1OC(=O)[C@H](C)[C@H](OC2CC(C)(OC)C(O)C(C)O2)[C@@H](C)[C@@H](OC2OC(C)CC(N(C)C)C2O)[C@](C)(O)C[C@@H](C)/C(=N\OCCCNc2ccnc3cc(Cl)ccc23)[C@@H](C)[C@H](O)[C@]1(C)O (stereo partly drawn) [PA 1169, 10{O-[3-(7-Chloroquinolin-4-ylamino)-propyl]-oxime}-erythromycin] | – | 0.078 (≈ 0.0806 µM) | – | – | – | – | – | – | – | – | – | – | – | 0.31 (≈ 0.32 µM) | – | – | – | 0.005 (≈ 0.00517 µM) | 0.156 (≈ 0.161 µM) | – | MIC [13]: > 5 µg/mL; MIC (S. pneumoniae mefE): 1.25 µg/mL (≈ 1.29 µM); gain in activity (factor) ([9]; Streptococcus pneumoniae PSSP, versus macrolide residue): 8
5 | O=C(O)c1cn(C2CC2)c2cc(N3CCN(c4ccnc5cc(Cl)ccc45)CC3)c(F)cc2c1=O [hydrochloride] | – | – | – | – | – | – | – | – | – | – | – | – | – | – | – | – | – | – | – | – | MIC [14]: 0.156 µg/mL; MIC (P. aeruginosa CIP 103467): 5 µg/mL; MIC (B. subtilis CIP 5262): < 0.001 µg/mL; fold more active than the sub-structure from which it comes (S. aureus NorA 1199B; S. aureus NorA, versus ciprofloxacin): 280; MIC (S. aureus NorA 1199B; Staphylococcus aureus, NORA1199B): 0.18 µg/mL; MIC (E. coli CIP 54127): 0.612 µg/mL; MIC [10]: 0.156 µg/mL; MIC (S. pneumoniae PRSP): 0.078 µg/mL; MIC (H. influenzae CIP 102514): 0.312 µg/mL; MIC [15]: 0.078 µg/mL

From US20070060558A1 (PALUMED S.A., priority 2004, published 2007)
